The target of the first assay is Pseudomonas aeruginosa LpxC enzyme (Pseudomonas aeruginosa (strain ATCC 15692 / DSM 22644 / CIP 104116 / JCM 14847 / LMG 12228 / 1C / PRS 101 / PAO1), UniProt P47205). Kind of assay: biochemical. The format is biochemical. As to conditions: class symbols A/B/C by IC50; Table 3; read-out: Enzyme inhibitory activity (inhibitory activity on Pseudomonas aeruginosa LpxC enzyme). On the procedure: Test 1: Evaluation of the Inhibitory Activity on Pseudomonas aeruginosa LpxC Enzyme
An inhibition curve was constructed for each test compound by performing the aforementioned reaction at varying concentrations of the test compound. From this inhibition curve, the concentration of the test compound at which the formation of the reaction product was suppressed by 50% was determined as the IC50 of the test compound, which was an index for the inhibitory activity on Pseudomonas aeruginosa LpxC enzyme.
As for `CNC(=O)C(C(=O)NO)N(C)C(=O)c1ccc(C#Cc2ccc(COCC(C)(C)N)cc2)cc1` (stereo not drawn) [Compound 508, 2-[{[4-({4-[(2-amino-2-methylpropoxy)methyl]phenyl}ethynyl)phenyl]carbonyl}(methyl)amino]-N-hydroxy-N′-methylpropanediamide], the IC50 was 10 to 100 nM.

`CNC(=O)C(C(=O)NO)N(C)C(=O)c1ccc(C#Cc2ccc(CN(C)Cc3ccccc3)cc2)cc1` (stereo not drawn) [Compound 495, 2-[({4-[(4-{[benzyl(methyl)amino]methyl}phenyl)ethynyl]phenyl}carbonyl)(methyl)amino]-N-hydroxy-N′-methylpropanediamide]: the IC50 was less than 10 nM.

The same assay, now with this note: inhibitory activity on Pseudomonas aeruginosa LpxC enzyme, class symbols A/B/C; read-out: Enzyme inhibitory activity.
For `CNC(=O)C(C(=O)NO)N(CCF)C(=O)c1ccc(-c2ccccc2)cc1` (stereo not drawn) [Compound 193, 2-[(biphenyl-4-ylcarbonyl)(2-fluoroethyl)amino]-N-hydroxy-N′-methylpropanediamide], the IC50 was less than 10 nM.

On to `CNC(=O)C(C)(C(=O)NO)N(C)C(=O)c1ccc(C#Cc2ccccc2)cc1` (stereo not drawn) [Compound 345, N-hydroxy-N′,2-dimethyl-2-(methyl {[4-(phenylethynyl)phenyl]carbonyl}amino)propanediamide], for which the IC50 was less than 10 nM.

Regarding `CNC(=O)C(C(=O)NO)N(C)C(=O)c1ccc(-c2ccc(OCCCCO)cc2)cc1` (stereo not drawn) [Compound 180, N-hydroxy-2-[{[4′-(4-hydroxybutoxy)biphenyl-4-yl]carbonyl}(methyl)amino]-N′-methylpropanediamide], the IC50 was less than 10 nM.

Turning to `O=C(NC(C(=O)NO)C(=O)NCC1CN(Cc2ccccc2)CCO1)c1ccc(-c2ccc(OCCO)cc2)cc1` (stereo not drawn) [Compound 160, N-[(4-benzylmorpholin-2-yl)methyl]-N′-hydroxy-2-({[4′-(2-hydroxyethoxy)biphenyl-4-yl]carbonyl}amino)propanediamide], the IC50 was less than 10 nM.

For the compound `CNC(=O)C(C(=O)NO)N(C(=O)c1ccc(-c2ccc(OCCCN3CCOCC3)cc2)cc1)C1CC1` (stereo not drawn) [Compound 198, 2-[cyclopropyl({4′-[3-(morpholin-4-yl)propoxy]biphenyl-4-yl}carbonyl)amino]-N-hydroxy-N′-methylpropanediamide], the IC50 was less than 10 nM.

In the case of `CNC(=O)C(C(=O)NO)N(OC)C(=O)c1ccc(-c2ccccc2)cc1` (stereo not drawn) [Compound 17, 2-[(biphenyl-4-ylcarbonyl)(methoxy)amino]-N-hydroxy-N′-methylpropanediamide], the IC50 lay within 10 to 100 nM.

With `CNC(=O)C(C(=O)NO)N(C)C(=O)c1ccc(C#Cc2ccc(CN3CC(C)(O)C3)cc2)cc1` (stereo not drawn) [Compound 321, N-hydroxy-2-[{[4-({4-[(3-hydroxy-3-methylazetidin-1-yl)methyl]phenyl}ethynyl)phenyl]carbonyl}(methyl)amino]-N′-methylpropanediamide], the IC50 is less than 10 nM.

Turning to `CNC(=O)C(C(=O)NO)N(C)C(=O)c1ccc(-c2ccc(N)cc2)cc1` (stereo not drawn) [Compound 284, 2-{[(4′-aminobiphenyl-4-yl)carbonyl](methyl)amino}-N-hydroxy-N′-methylpropanediamide], the IC50 was in the range of 10 to 100 nM.

Consider `CNC(=O)C(C(=O)NO)N(C)C(=O)C1CCC(c2ccc(Cl)cc2)CC1` (stereo not drawn) [Compound 273, 2-[{[4-(4-chlorophenyl)cyclohexyl]carbonyl}(methyl)amino]-N-hydroxy-N′-methylpropanediamide], for which the IC50 is greater than 100 nM.

In the case of `CNC(=O)C(C(=O)NO)N(C)C(=O)c1ccc(-c2cccs2)cc1` (stereo not drawn) [Compound 308, N-hydroxy-N′-methyl-2-(methyl {[4-(thiophen-2-yl)phenyl]carbonyl}amino)propanediamide], the IC50 lay within 10 to 100 nM.

`CNC(=O)C(C(=O)NO)N(C)C(=O)c1ccc(-c2ccc3c(c2)cc(COCOC)n3C)cc1` (stereo not drawn) [Compound 33, N-hydroxy-2-[(4-{2-[(methoxymethoxy)methyl]-1-methyl-1H-indol-5-yl}benzoyl)(methyl)amino]-N′-methylpropanediamide]: the IC50 is less than 10 nM.

For `CNC(=O)C(C(=O)NO)N(C)C(=O)c1ccc(-c2ccc3c(c2)OC(F)(F)O3)cc1` (stereo not drawn) [Compound 258, 2-{[4-(2,2-difluoro-1,3-benzodioxol-5-yl)benzoyl](methyl)amino}-N-hydroxy-N′-methylpropanediamide], the IC50 is less than 10 nM.

Turning to `CN(C(=O)c1ccc(-c2ccccc2)cc1)C(C(=O)NO)C(=O)NCc1ccccc1` (stereo not drawn) [Compound 62, N-benzyl-2-[(biphenyl-4-ylcarbonyl)(methyl)amino]-N′-hydroxypropanediamide], the IC50 was greater than 100 nM.

With `CNC(=O)C(C(=O)NO)N(C)C(=O)c1ccc(-c2ccc(CCOC)cc2)cc1` (stereo not drawn) [Compound 246, N-hydroxy-2-[{[4′-(2-methoxyethyl)biphenyl-4-yl]carbonyl}(methyl)amino]-N′-methylpropanediamide], the IC50 was less than 10 nM.

For the compound `CNC(=O)C(C(=O)NO)N(C)C(=O)c1ccc(-c2ccc3nonc3c2)cc1` (stereo not drawn) [Compound 189, 2-{[4-(2,1,3-benzoxadiazol-5-yl)benzoyl](methyl)amino}-N-hydroxy-N′-methylpropanediamide], the IC50 fell in the range of 10 to 100 nM.

As to `COCCNC(=O)C(NC(=O)c1ccc(-c2ccc(OCCO)cc2)cc1)C(=O)NO` (stereo not drawn) [Compound 131, N-hydroxy-2-({[4′-(2-hydroxyethoxy)biphenyl-4-yl]carbonyl}amino)-N′-(2-methoxyethyl)propanediamide], the IC50 lay in the range of 10 to 100 nM.

For the compound `O=C(NC(C(=O)NO)C(=O)NCCc1ccccc1)c1ccc(-c2ccc(OCCO)cc2)cc1` (stereo not drawn) [Compound 125, N-hydroxy-2-({[4′-(2-hydroxyethoxy)biphenyl-4-yl]carbonyl}amino)-N′-(2-phenylethyl)propanediamide], the IC50 was 10 to 100 nM.

For the compound `CNC(=O)C(C(=O)NO)N(C)C(=O)c1ccc(-c2ccc(N(C)C)c(F)c2)cc1` (stereo not drawn) [Compound 54, 2-[{[4′-(dimethylamino)-3′-fluorobiphenyl-4-yl]carbonyl}(methyl)amino]-N-hydroxy-N′-methylpropanediamide], the IC50 was 10 to 100 nM.

For the compound `CNC(=O)C(C(=O)NO)N(C)C(=O)c1ccc(-c2ccc(OC)c(F)c2)cc1` (stereo not drawn) [Compound 216, 2-{[(3′-fluoro-4′-methoxybiphenyl-4-yl)carbonyl](methyl)amino}-N-hydroxy-N′-methylpropanediamide], the IC50 is less than 10 nM.

In the case of `CNC(=O)C(C(=O)NO)N(C)C(=O)c1ccc(C#Cc2ccc(CN3CCOCC3)cc2)cc1` (stereo not drawn) [Compound 167, N-hydroxy-N′-methyl-2-[methyl(4-{[4-(morpholin-4-ylmethyl)phenyl]ethynyl}benzoyl)amino]propanediamide], the IC50 is less than 10 nM.

`CNC(=O)C(C(=O)NO)N(C)C(=O)c1ccc(-c2ccccc2F)c(F)c1` (stereo not drawn) [Compound 73, 2-{[(2,2′-difluorobiphenyl-4-yl)carbonyl](methyl)amino}-N-hydroxy-N′-methylpropanediamide]: the IC50 is less than 10 nM.

Regarding `CNC(=O)C(NC(=O)c1ccc(-c2ccc(OCCCN3CCCOCC3)cc2)cc1)C(=O)NO` (stereo not drawn) [Compound 112, N-hydroxy-N′-methyl-2-[({4′-[3-(1,4-oxazepan-4-yl)propoxy]biphenyl-4-yl}carbonyl)amino]propanediamide], the IC50 is less than 10 nM.

In the case of `CNC(=O)C(C(=O)NO)N(C)C(=O)c1ccc(-c2ccc3nn(C)cc3c2)cc1` (stereo not drawn) [Compound 197, N-hydroxy-N′-methyl-2-{methyl[4-(2-methyl-2H-indazol-5-yl)benzoyl]amino}propanediamide], the IC50 fell in the range of 10 to 100 nM.

`O=C(NC(C(=O)NO)C(=O)NC1CC1)c1ccc(-c2ccc(OCCO)cc2)cc1` (stereo not drawn) [Compound 121, N-cyclopropyl-N′-hydroxy-2-({[4′-(2-hydroxyethoxy)biphenyl-4-yl]carbonyl}amino)propanediamide]: the IC50 was in the range of 10 to 100 nM.

For `CNC(=O)C(C(=O)NO)N(C)C(=O)c1ccc(-c2ccc(OCc3ccc(CN4CCOCC4)cc3)cc2)cc1` (stereo not drawn) [Compound 91, N-hydroxy-N′-methyl-2-{methyl[(4′-{[4-(morpholin-4-ylmethyl)benzyl]oxy}biphenyl-4-yl)carbonyl]amino}propanediamide], the IC50 was less than 10 nM.

As for `CNC(=O)C(C(=O)NO)N(C)C(=O)c1ccc(C#Cc2ccc(CN3CC4(COC4)C3)cc2)cc1` (stereo not drawn) [Compound 322, N-hydroxy-N′-methyl-2-{methyl[(4-{[4-(2-oxa-6-azaspiro[3.3]hept-6-ylmethyl)phenyl]ethynyl}phenyl)carbonyl]amino}propanediamide], the IC50 is less than 10 nM.

As to `CNC(=O)C(C(=O)NO)N(C)C(=O)c1ccc(-c2ccc(C(C)(F)F)cc2)cc1` (stereo not drawn) [Compound 253, 2-[{[4′-(1,1-difluoroethyl)biphenyl-4-yl]carbonyl}(methyl)amino]-N-hydroxy-N′-methylpropanediamide], the IC50 is less than 10 nM.

For `CNC(=O)C(C(=O)NO)N(C)C(=O)c1ccc(C#CC#Cc2ccoc2)cc1` (stereo not drawn) [Compound 484, 2-[({4-[4-(furan-3-yl)buta-1,3-diyn-1-yl]phenyl}carbonyl)(methyl)amino]-N-hydroxy-N′-methylpropanediamide], the IC50 was less than 10 nM.

As to `CNC(=O)C(C(=O)NO)N(C)C(=O)c1ccc(C#Cc2ccccc2)cn1` (stereo not drawn) [Compound 455, N-hydroxy-N′-methyl-2-(methyl {[5-(phenylethynyl)pyridin-2-yl]carbonyl}amino)propanediamide], the IC50 was greater than 100 nM.

In the case of `CNC(=O)C(C(=O)NO)N(C)C(=O)c1ccc(-c2ccc(OCCCN(C)Cc3ccccc3)cc2NC)cc1` (stereo not drawn) [Compound 106, 2-[{[4′-{3-[benzyl(methyl)amino]propoxy}-2′-(methylamino)biphenyl-4-yl]carbonyl}(methyl)amino]-N-hydroxy-N′-methylpropanediamide], the IC50 fell in the range of 10 to 100 nM.

In the case of `CCCNc1ccc(-c2ccc(C(=O)N(C)C(C(=O)NC)C(=O)NO)cc2)cc1F` (stereo not drawn) [Compound 231, 2-[{[3′-fluoro-4′-(propylamino)biphenyl-4-yl]carbonyl}(methyl)amino]-N-hydroxy-N′-methylpropanediamide], the IC50 is less than 10 nM.
